According to patent publication US20260191817A1, “FIBROBLAST MODULATORS IN STROMA-RICH TUMORS” (UNIVERSITEIT GENT, priority 2022, published 2026):
“Also recorded” adds a separate entry of the source.

Experiments:
[1] = tested on: 13B2 hTERT, CT5.3 hTERT, HCA2 hTERT, MCF-7/6 and 4T1-Luc cells; experiment: 2D CellTiter-Glo Cell Viability Assay; type: cell-based; conditions: 48 h of treatment
Protocol: The half maximal inhibitory concentration (IC50) of A1 was evaluated using a CellTiter-Glo® 2.0 Cell Viability Assay (cat. no. G9243, Promega) and a CellTiter-Glo® 3D Cell Viability Assay (cat. no. G9681, Promega). 13B2 hTERT cells (2D: 2×10^5, 3D: 8×10^4) were plated in each well of a Nunc™ MicroWell™ 96-Well, Nunclon Delta-Treated, Flat-Bottom Microplate (cat. no. 167008, Thermo Fisher Scientific) for 2D experiments or 96-well ULA plate (cat. no. MS-9096UZ, S-bio) in a volume of 90 μL/well. A1 was serially diluted in the appropriate medium to 10× the final concentrations. For each treatment condition, 10 μL was added to 3 replicate wells (final concentrations ranging from 1-100 μM) and plates were incubated for 48 h.
The CellTiter-Glo Cell Viability Assay was performed according to manufacturer's instructions. Briefly, the plates and the CellTiter-Glo® Reagent were equilibrated to room temperature (RT). The CellTiter-Glo® Reagent was added to each well in a 1:1 (v/v) ratio. For 2D experiments, cell lysis was induced by placing the plates on an orbital shaker for 2 min, followed by stabilization of the luminescent signal for 10 min. […] Afterwards, the luminescence was measured using a Synergy™ HTX Multi-Mode Microplate Reader (BioTek). The IC50 value was determined using the Graphpad Prism software. […]

13B2 hTERT breast CAFs = experiment: AFM spheroid stiffness, 13B2 hTERT breast CAFs; type: cell-based, human; conditions: for Young's modulus / spheroid stiffness: 1 μM, 48 h during spheroid formation
Source text: It is well established that an increased tumor and ECM stiffness is associated with a negative prognosis as it promotes tumor growth, progression, therapy resistance, immunosuppression and metastasis. Stiffness is chiefly regulated by the action of the CAFs in the TME. Stiffness modulation is, therefore, a fitting read-out of activity in a screen for CAF modulators. To assess stiffness modulation, the stiffness of spheroids of CAF cells treated with test compounds was interrogated using atomic force microscopy (AFM) indentation and compared with untreated cells. AFM measurement of the stiffness (elasticity) of cells and spheroids is a technique well-known to those skilled in the art. AFM measures the force required to create a given deflection, this read-out is also known as the Young's modulus. AFM is widely used in biology and cancer research: altered physicochemical properties of live cells serve as a read-out of altered complex physiological processes.
U-shaped, 384-well ULA plates (cat. no. MS-9384UZ, S-bio) were seeded with a suspension of cell-specific culture media with cells. Cells were allowed to form spheroids for an appropriate time under treatment conditions before use in experiments. Cell culture dishes (cat. no. 734-2814, VWR) were filled with collagen gel and placed at 37° C. for an appropriate time to allow solidification. For each condition, spheroids were pooled in one cell culture dish. The medium was removed (stored at 37° C.) to promote attachment of the bottom of each spheroid to the collagen gel. The cell culture dishes were incubated at 37° C. After the incubation period, the stored medium was carefully (prevent detachment of spheroids) added to the dishes.
Mechanical measurements were performed using an atomic force microscope. To indent the spheroids an in-house made colloidal probe was used. Force curves were collected using an appropriate setpoint and probe speed (depending on the stiffness of the spheroids). On each spheroid multiple force curves were collected. Collected curves were then processed using the JPK DP software. Young's modulus was extracted from the force curves. All experiments were performed in biological triplicate.
To generate 3D cultures mimicking the complexity and pathophysiology of in vivo tumors, spheroids were used (cfr. point 4). Spheroids are considered to better simulate cellular heterogeneity, nutrient and oxygen gradients, cell-cell interactions, cell-matrix interactions, gene expression profiles, stromal interactions, therapeutic responses, multicellular resistance, drug penetration and anti-apoptotic signaling.

[2] = tested on: human invasive MCF-7/6 mammary carcinoma cells; experiment: Chick heart invasion (CHI) assay with MCF-7/6 aggregates; type: cell-based; conditions: MCF7/6, 192 h, lowest concentration at which an anti-invasive effect (histological grade I or II) was observed, 8 days, read-out: Lowest active concentration
Protocol: Chick heart invasion assays were performed as described earlier (Bracke et al. 2014). Precultured heart fragments of 9-day-old chicken embryos were confronted with MCF-7/6 aggregates on top of a semi-solid agar at 37° C. overnight, after which the confronting pairs were cultured in suspension for 8 days at 37° C., 10% CO2 in presence or absence of a test compound (in duplo). This procedure can also be performed with aggregates of 4T1-Luc cells, for which the suspension culture of the confronting pairs is performed for 3.5 days. All compounds were evaluated at 1 μM and 100 nM; depending on the outcome higher or lower concentrations were subsequently evaluated. Upon fixation in Bouin-Hollande, the cultures were dehydrated and embedded in paraffin. Sections of the confrontation cultures were stained with hematoxylin-eosin are blinded and scored by a trained person (Bracke et al., 2014).
In the chick heart invasion assay cancer cells are confronted with a fragment of normal tissue, so as not to neglect the contribution of the host tissue in the micro-ecosystem that governs tumor behavior. As such, precultured heart tissue fragments (PHFs), dissected from 9-day-old chicken embryos, may be confronted with aggregates of human invasive MCF-7/6 mammary carcinoma cells or other cells in the presence of a certain concentration of a test compound. After eight days for MCF-7/6, or another period depending on the cell type, the interaction between the cancer cells and the PHF is evaluated histologically and classified along a 5-grades subjective scale (Bracke et al. 2014). Grades III and IV are typical for invasion, while grades 0, I and II correspond to absence of invasion. Compounds that inhibit invasion of confronting cancer cells i.e. from III/IV to 0/I/II, are determined as anti-invasive. Possible alternative assays generally known in the art are the type I collagen invasion assay, wound healing assay and the matrigel invasion assay.
The chick heart invasion (CHI) assay is a phenotypic assay that confronts precultured heart tissue fragments (PHFs, ‘normal tissue’), obtained from 9-day-old chicken embryos, with aggregates of human invasive MCF-7/6 mammary carcinoma cells (Bracke et al. 2014). In the control situation, the MCF-7/6 cells encircle, invade and destroy the PHF over an 8-day period. Invasion in this assay is defined as the progressive occupation and destruction of the PHF by the MCF-7/6 cells. Three-dimensional reconstruction of this interaction is obtained by microscopic analysis of all consecutive histological sections of the culture. The read-out is an invasion score according to a 5-grades histological scale.
The CHI closely reproduces the temporal, spatial and histological invasion patterns in man. The co-culture set-up probes for effects on both tumor cells and host tissue, and thus interrogates potential pharmacological targets in either interaction partner. Its use of histological evaluation allows discerning anti-invasive action from cytotoxicity or other effects.
We have submitted flavones B1-B4, flavanones B5-B8 and the intermediate 2′-hydroxychalcones A9, All and A12 to the chick heart invasion assay using MCF-7/6 aggregates. All compounds were evaluated at 1 μM and 100 nM; depending on the outcome higher or lower concentrations were subsequently evaluated. […] This table also includes CHI data on chalcones A1, A2 and A5.

SMILES	IC50 value, metabolic activity of 2D cultures [1]	Young's modulus / spheroid stiffness, concentration range (13B2 hTERT breast CAFs; 30 nM-3 μM, 48 h)	Young's modulus / spheroid stiffness (13B2 hTERT breast CAFs)	minimal effective concentration [2] [µM]
COc1cc(C(=O)/C=C/c2ccc(F)cc2)cc(OC)c1OC [Compound A1, 3-(4-Fluorophenyl)-1-(3,4,5-trimethoxyphenyl)prop2-en-1-one]	high micromolar	dose-response behavior	significant decrease; also recorded: active	0.01
COc1cc2oc(-c3ccc(F)cc3)cc(=O)c2c(OC)c1OC [Compound B1, 2-(4-Fluorophenyl)-5,6,7-trimethoxy-4H-chromen-4-one]	high micromolar	–	significant decrease; also recorded: active	0.01
